A short description of data set [1]: water solubility of the isolated product. The data set is classed as physicochemical. To be noted: isolated white powder.
A short description of data set [2]: pH of the isolated product. The data set is classed as physicochemical. Particulars: isolated white powder.

For `C#CC1CCN(Nc2c(OC)cc3ncnc(N(C)c4ccc(C)cc4)c3c2CC)CC1` [III-1], the water solubility entry in data set [1] is given as “water-soluble”. In addition, the pH in data set [2] is listed as 6.4.
For `C=CC1CCN(C(=O)Oc2cc3c(N(C)c4ccc(CC)cc4)ncnc3c(C)c2OCC)CC1` [II-1], in data set [1], the water solubility entry is recorded as “water-soluble”. Moreover, in data set [2], the pH was 6.4.
For the molecule `C=CC1CCN(Sc2cc3c(N(C)c4ccc(CC)cc4)ncnc3c(C)c2OCCC)CC1` [Compound V-1], the water solubility result in data set [1] is listed as “water-soluble”. Besides, in data set [2], the pH worked out at 6.4.

The record behind these values is patent US7825245B2, “Substituted 4-anilinoquinazolines and their use in tumor treatment” (priority 2005, dated 2010).
